Measurements taken from patent US20250230193A1, “CYCLIC COMPOUND HAVING SELECTIVE KRAS INHIBITORY EFFECT ON HRAS AND NRAS” (CHUGAI SEIYAKU KABUSHIKI KAISHA, priority 2022, published 2025).
*1 amine or outer side, *2 acyl side, *3 side chain or, on linkers, in order; H or OH if unused. Where a SMILES comes first, the peptide text is derived from it. Bridges are numbered along the chain shown (N, C = ends). [ ]: non-standard residue; d: D form. The star is where a group is joined. hPhe(3-Cl-4-CF3) = N[C@@H](CCc1ccc(C(F)(F)F)c(Cl)c1)C(=O)O; NPrPhe(4-CF3) = CCCN[C@@H](Cc1ccc(C(F)(F)F)cc1)C(=O)O; NMeGly(cPent) = CN[C@H](C(=O)O)C1CCCC1; NMeD = CN[C@@H](CC(=O)O)C(=O)O; NMeL = CN[C@@H](CC(C)C)C(=O)O; X14 = N#CCN(CC(=O)[*:2])[*:1]; Morpholide = C1CN(*)CCO1; Ac5c = NC1(C(=O)O)CCCC1; Sar = CNCC(=O)O

Assays:
[1] = molecular target: GDP-bound NRAS wild-type protein (Homo sapiens, UniProt P01111); assay: Binding to NRAS by surface plasmon resonance (SPR), Single Cycle Kinetics; details: SPR; for NRAS/KRAS (ratio of KD value with respect to NRAS to KD value with respect to KRAS) / NRAS/KRAS (ratio of KD value for NRAS to KD value for KRAS): GDP-bound NRAS wild-type vs GDP-bound KRAS wild-type
[2] = molecular target: GDP-bound HRAS wild-type protein (Homo sapiens, UniProt P01112); assay: Binding to HRAS by surface plasmon resonance (SPR), Single Cycle Kinetics; details: SPR; for HRAS/KRAS (ratio of KD value with respect to HRAS to KD value with respect to KRAS) / HRAS/KRAS (ratio of KD value for HRAS to KD value for KRAS): GDP-bound HRAS wild-type vs GDP-bound KRAS wild-type
Sequence of GDP-bound HRAS wild-type protein (P01112 whole entry): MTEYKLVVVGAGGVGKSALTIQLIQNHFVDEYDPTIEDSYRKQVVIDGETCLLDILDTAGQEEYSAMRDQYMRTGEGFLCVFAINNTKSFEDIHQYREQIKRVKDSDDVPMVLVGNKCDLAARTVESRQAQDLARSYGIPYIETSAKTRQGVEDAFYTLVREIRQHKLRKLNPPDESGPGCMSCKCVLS

Sequence of GDP-bound NRAS wild-type protein (P01111 whole entry): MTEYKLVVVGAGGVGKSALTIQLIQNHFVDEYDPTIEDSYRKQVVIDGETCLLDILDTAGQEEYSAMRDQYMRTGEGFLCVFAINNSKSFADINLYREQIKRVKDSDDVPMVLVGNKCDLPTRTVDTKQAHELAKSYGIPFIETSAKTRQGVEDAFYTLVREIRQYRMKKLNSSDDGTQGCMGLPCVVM

Compound	NRAS/KRAS (ratio of KD value with respect to NRAS to KD value with respect to KRAS) [1]	HRAS/KRAS (ratio of KD value with respect to HRAS to KD value with respect to KRAS) [2]	NRAS/KRAS (ratio of KD value for NRAS to KD value for KRAS) [1]	HRAS/KRAS (ratio of KD value for HRAS to KD value for KRAS) [2]	other results
CCO[C@@H]1C[C@H]2C(=O)NC3(CCC3)C(=O)N(C)[C@@H](C3CCCC3)C(=O)N(C)[C@H](C(=O)N3CCCC3)CC(=O)N(C)[C@@H](CC)C(=O)N[C@@H]([C@@H](C)CC)C(=O)N(C)CC(=O)N(C)[C@H]3C/C=C\CCN(C3=O)[C@@H](Cc3ccc(C(F)(F)F)cc3)C(=O)N(C)CC(=O)N[C@@H](CCc3cc(F)c(C(F)(F)F)c(F)c3)C(=O)N2C1 [PP1090]	AA (a compound having 20 or more is denoted as AA)	A (a compound having 10 or more and less than 20 is denoted as A)	–	–	–
CC[C@H](C)[C@@H]1NC(=O)[C@H](CC)N(C)C(=O)C[C@@H](C(=O)N(C)C)N(C)C(=O)[C@H](C2CCCC2)N(C)C(=O)C2(CCCC2)N(C)C(=O)[C@@H]2C[C@@H](C)CN2C(=O)[C@H](CCc2cc(F)c(C(F)(F)F)c(F)c2)NC(=O)CN(C)C(=O)[C@H](Cc2ccc(C)cc2)N2CC/C=C\C[C@@H](C2=O)N(C)C(=O)CN(C)C1=O [PP1812]	–	–	A (a compound having 10 or more and less than 20 is denoted as A)	A (a compound having 10 or more and less than 20 is denoted as A)	–
CCO[C@@H]1C[C@H]2C(=O)NC3(CCC3)C(=O)N(C)[C@@H](C3CCCC3)C(=O)N[C@H](C(=O)N(C)C)CC(=O)N(C)[C@@H](CC)C(=O)N[C@@H]([C@@H](C)CC)C(=O)N(C)CC(=O)N(C)[C@H]3C/C=C\CCN(C3=O)[C@@H](Cc3ccc(C(F)(F)F)cc3)C(=O)N(C)CC(=O)N[C@@H](CCc3cc(F)c(C(F)(F)F)c(F)c3)C(=O)N2C1 [PP1094]	A (a compound having 10 or more and less than 20 is denoted as A)	B (a compound having 3 or more and less than 10 is denoted as B)	–	–	–
CCCN1C(=O)CN(C)C(=O)CN(CC#N)C(=O)[C@H]([C@@H](C)CC)NC(=O)[C@H](CC(C)C)N(C)C(=O)C[C@@H](C(=O)N2CCOCC2)N(C)C(=O)[C@H](C2CCCC2)N(C)C(=O)C2(CCCC2)NC(=O)[C@@H]2CCCN2C(=O)[C@H](CCc2ccc(C(F)(F)F)c(Cl)c2)NC(=O)CN(C)C(=O)[C@@H]1Cc1ccc(C(F)(F)F)cc1 [PP0254] ([NMeL]I[X14][Sar][NPrPhe(4-CF3)][Sar][hPhe(3-Cl-4-CF3)]P[Ac5c][NMeGly(cPent)][NMeD]-Morpholide; lactam N-11)	–	–	–	–	NRAS/KRAS (ratio of KD for GDP-bound NRAS wild-type to KD for KRAS) ([1]; KD ratio NRAS/KRAS): B (a compound having 3 or more and less than 10 is denoted as B); HRAS/KRAS (ratio of KD for GDP-bound HRAS wild-type to KD for KRAS) ([2]; KD ratio HRAS/KRAS): C (A compound having a KD ratio of 0.1 or more and less than 3 is denoted as C)
CCCN(C)C(=O)[C@@H]1CC(=O)N(C)[C@@H](CC(C)C)C(=O)N[C@@H]([C@@H](C)CC)C(=O)N(C)CC(=O)N(C)[C@H]2C/C=C\CCN(C2=O)[C@@H](Cc2ccc(C(F)(F)F)cc2)C(=O)N(C)CC(=O)N[C@@H](CCc2cc(F)c(C(F)(F)F)c(F)c2)C(=O)N2C[C@H](OCC)C[C@H]2C(=O)NC2(COC2)C(=O)N(C)[C@@H](C2CCCC2)C(=O)N1C [PP1938]	–	–	AA (a compound having 20 or more is denoted as AA)	A (a compound having 10 or more and less than 20 is denoted as A)	–
CCCN(C)C(=O)[C@@H]1CC(=O)N(C)[C@@H](CC2CCC2)C(=O)N[C@@H]([C@@H](C)CC)C(=O)N(C)CC(=O)N(C)[C@H]2C/C=C\CCN(C2=O)[C@@H](Cc2ccc(C(F)(F)F)cc2)C(=O)N(C)CC(=O)N[C@@H](CCc2cc(F)c(C(F)(F)F)c(F)c2)C(=O)N2C[C@H](OCC)C[C@H]2C(=O)NC2(CCC2)C(=O)N(C)[C@@H](C2CCCC2)C(=O)N1C [PP1705]	–	–	AA (a compound having 20 or more is denoted as AA)	A (a compound having 10 or more and less than 20 is denoted as A)	–
CCO[C@@H]1C[C@H]2C(=O)NC3(CC(C)(C)C3)C(=O)N(C)[C@@H](C3CCCC3)C(=O)N(C)[C@H](C(=O)N(C)C)CC(=O)N(CC)[C@@H](CC(C)C)C(=O)N[C@@H]([C@@H](C)CC)C(=O)NCC(=O)N(C)[C@H]3C/C=C\CCN(C3=O)[C@@H](Cc3ccc(C(F)(F)F)cc3)C(=O)N(C)CC(=O)N[C@@H](CCc3cc(F)c(C(F)(F)F)c(F)c3)C(=O)N2C1 [PP1772]	–	–	B (a compound having 3 or more and less than 10 is denoted as B)	B (a compound having 3 or more and less than 10 is denoted as B)	–
CC[C@H](C)[C@@H]1NC(=O)[C@H](CC(C)C)N(C)C(=O)C[C@@H](C(=O)N2CCOCC2)N(C)C(=O)[C@H](C2CCCC2)N(C)C(=O)C2(CCC2)NC(=O)[C@@H]2C[C@@H](O)CN2C(=O)[C@H](CCc2cc(F)c(C(F)(F)F)c(F)c2)NC(=O)CN(C)C(=O)[C@H](Cc2ccc(C(F)(F)F)cc2)N2CCCC[C@@H](C2=O)N(C)C(=O)CN(C)C1=O [PP0868]	C (A compound having a KD ratio of 0.1 or more and less than 3 is denoted as C)	B (a compound having 3 or more and less than 10 is denoted as B)	–	–	–
